In patent US11857537B2, “Use of prostacyclin antagonists for treating ocular surface nociception” (JENIVISION INC., priority 2016, dated 2024):
Entries after “also recorded” stand apart in the source; their conditions may differ.

Key:
[1] = system: ocular surface nociception induced by corneal scarification in Cynomolgus monkeys; experiment: Mild corneal abrasion (scarification) model of ocular discomfort, nictation (blinking) rate; assay type: in vivo, Cynomolgus monkey
Experimental: A prostanoid IP receptor antagonist (4,5-dihydro-N-[4-[[4-(1-methylethoxy)phenyl]methyl]phenyl]-1H-imadazol-2-amine RO-1138452, CAY 10441), at a dose of 0.3% w/v in an aqueous 1% polysorbate 80 in Tris-HCL (a standard ocular vehicle used in testing of ophthalmic drugs), was administered topically to the ocular surface of […] Cynomolgus monkeys. Cynomologus monkeys are the closest animal model for humans. A model that replicates an actual clinically encountered ocular condition, namely corneal abrasion, was employed.
As an animal model indicative of both ocular discomfort and pain, mild corneal scarification and measurement of the resultant increased blinking (nictation) rate was employed. The species chosen was the Cynomologous monkey and there are reasons for this selection. […] Increased rate of blinking (nictation) is recognized as a reliable end-point indicative of discomfort and pain and was, therefore, used in the studies described herein. There is a linear correlation between ocular surface sensory-evoked stimulation and blink rate in humans (Wu et al., 2014). Increased blinking frequency is associated with a diverse variety of conditions that elicit ocular discomfort and pain such as air borne noxious contaminants (Lang et al., 2008), acidic solutions (Collejo et al, 2015), dry eye conditions and wearing contact lenses (Wu et al., 2014). Thus, increased blinking rate is a universal indicator of ocular surface nociception resulting in discomfort and pain.
The drug formulation was administered post-scarification of the cornea, and at identical time points on two subsequent days. Ocular discomfort was monitored as the nictation (blinking) rate. Blinking is an established human behavioral response to corneal discomfort and irritation (Lang et al., 2008; Wu et al., 2014; Callejo et al., 2015). […]
A total of eight naïve Cynomolgus monkeys were used. […] The nictation rate (blinking rate) was measured to provide quantification of discomfort. […]

[2] = system: ocular pain; experiment: Patient case examples: ocular pain after topical ocular administration; assay type: in vivo, human; conditions: Example II: person, extreme ocular discomfort with pain; 0.3% w/v solution, then twice a day
Source text: A person was suffering from extreme ocular discomfort which was associated with pain. […] A person suffers a grade 2 chemical eye burn from an acidic substance. Despite being administered prednisolone acetate 1% every two hours, severe ocular pain persists. The physician will administer Formula 3 from Table I, three times a day. […] After 7-21 days, the patient experiences corneal/conjunctival epithelium and keratocytes proliferate. Collagen synthesis begins. A person suffers from aqueous tear deficient dry eye associated occasionally with moderate to severe sharp ocular pain.

CC(C)Oc1ccc(Cc2ccc(NC3=NCCN3)cc2)cc1 [4,5-dihydro-N-[4-[[4-(1-methylethoxy)phenyl]methyl]phenyl]-1H-imadazol-2-amine]
nictation rate in drug treated eyes compared with vehicle ([1]; 0.3% w/v topical once daily on Day 4 and Day 5 after corneal scarification on Day 3, n=4 per group, P<0.01 vs vehicle): statistically significantly lower | ocular surface nociception induced by scarification ([1]; 0.3% w/v topical, P≤0.01 non-paired t-test): significantly reduced | difference in blinking rate, control vs. treated group ([1]; two days after the surgery (Day 5-16:00)): minimal | ocular pain [2]: immediate reduction of ocular pain; also recorded: all pain is reduced and eventually disappears
